Where “and” joins values, the source holds several entries; their conditions need not be identical. Identical values can stand only once. Results filed as inconclusive are left out.
Tested on: BDF1 mice, colon carcinoma 38 sc, T/C %
Experiment: NCI In Vivo Anticancer Drug Screen. Data for tumor model Colon Carcinoma 38 (subcutaneous) in B6D2F1 (BDF1) mice
Procedure, shortened: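 Ratio of survival or tumor size, compound-treated animals relative to vehicle controls, in tumor-bearing mice.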

[1] = endpoint: median tumor weight (est.), dose: 12.5 mg/kg/injection, schedule: Q07DX002 (ip), vehicle: saline, higher = larger tumour

CO[C@H]1C[C@@H]2CC[C@@H](C)[C@@](O)(O2)C(=O)C(=O)N2CCCC[C@H]2C(=O)O[C@H]([C@H](C)C[C@@H]2CC[C@@H](O)[C@H](OC)C2)CC(=O)[C@H](C)C=C(C)[C@@H](O)[C@@H](OC)C(=O)[C@H](C)C[C@H](C)/C=C/C=C/C=C1C
T/C (endpoint: median tumor weight (est.), dose: 12.5 mg/kg/injection, schedule: Q07DX003 (ip), vehicle: saline with Tween-80, higher = larger tumour): 40 % of control and 45 % of control | T/C (endpoint: median tumor weight (est.), dose: 25.0 mg/kg/injection, schedule: Q07DX003 (ip), vehicle: saline with Tween-80, higher = larger tumour): 26 % of control and 45 % of control | T/C (endpoint: median tumor weight (est.), dose: 50.0 mg/kg/injection, schedule: Q07DX003 (ip), vehicle: saline with Tween-80, higher = larger tumour): 20 % of control and 39 % of control | T/C (endpoint: median tumor weight (est.), dose: 100.0 mg/kg/injection, schedule: Q07DX003 (ip), vehicle: saline with Tween-80, higher = larger tumour): 33 % of control | T/C (endpoint: median tumor weight (est.), dose: 200.0 mg/kg/injection, schedule: Q07DX003 (ip), vehicle: saline with Tween-80, higher = larger tumour): 14 % of control and 25 % of control | T/C (endpoint: median tumor weight (est.), dose: 400.0 mg/kg/injection, schedule: Q07DX003 (ip), vehicle: saline with Tween-80, higher = larger tumour): 14 % of control and 23 % of control

CCOC(=O)c1ccc(NC(=O)Nc2nncs2)cc1
T/C (endpoint: median tumor weight (est.), dose: 12.5 mg/kg/injection, schedule: Q07DX002 (ip), vehicle: distilled water + Tween-80, higher = larger tumour): 194 % of control | T/C (endpoint: median tumor weight (est.), dose: 25.0 mg/kg/injection, schedule: Q07DX002 (ip), vehicle: distilled water + Tween-80, higher = larger tumour): 90 % of control | T/C (endpoint: median tumor weight (est.), dose: 50.0 mg/kg/injection, schedule: Q07DX002 (ip), vehicle: distilled water + Tween-80, higher = larger tumour): 94 % of control

C=CS(=O)(=O)c1ccccc1
T/C (endpoint: median tumor weight (est.), dose: 6.25 mg/kg/injection, schedule: Q07DX002 (ip), vehicle: saline with Tween-80, higher = larger tumour): 91 % of control | T/C (endpoint: median tumor weight (est.), dose: 12.5 mg/kg/injection, schedule: Q07DX002 (ip), vehicle: saline with Tween-80, higher = larger tumour): 66 % of control | T/C [1]: 97 % of control | T/C (endpoint: median tumor weight (est.), dose: 25.0 mg/kg/injection, schedule: Q07DX002 (ip), vehicle: saline with Tween-80, higher = larger tumour): 174 % of control | T/C (endpoint: median tumor weight (est.), dose: 50.0 mg/kg/injection, schedule: Q07DX002 (ip), vehicle: saline with Tween-80, higher = larger tumour): 150 % of control | T/C (endpoint: median tumor weight (est.), dose: 50.0 mg/kg/injection, schedule: Q07DX002 (ip), vehicle: saline, higher = larger tumour): 100 % of control | T/C (endpoint: median tumor weight (est.), dose: 100.0 mg/kg/injection, schedule: Q07DX002 (ip), vehicle: saline with Tween-80, higher = larger tumour): 109 % of control

COC1C(O)CC(OC2CC(Oc3cc4cc5c(c(O)c4c(O)c3C)C(=O)[C@@H](OC3CC(OC4CC(OC6CC(C)(O)C(OC(C)=O)C(C)O6)C(O)C(C)O4)C(O)C(C)O3)[C@H]([C@H](OC)C(=O)[C@@H](O)[C@@H](C)O)C5)OC(C)C2OC(C)=O)OC1C (stereo partly specified)
T/C (endpoint: median tumor weight (est.), dose: 0.04 mg/kg/injection, schedule: Q07DX002 (ip), vehicle: Klucel (hydroxypropylcellulose) (HPC), higher = larger tumour): 109 % of control and 105 % of control | T/C (endpoint: median tumor weight (est.), dose: 0.08 mg/kg/injection, schedule: Q07DX002 (ip), vehicle: Klucel (hydroxypropylcellulose) (HPC), higher = larger tumour): 207 % of control and 76 % of control | T/C (endpoint: median tumor weight (est.), dose: 0.16 mg/kg/injection, schedule: Q07DX002 (ip), vehicle: Klucel (hydroxypropylcellulose) (HPC), higher = larger tumour): 71 % of control

N=C1C=C[C@]2(O)C[C@H](Cl)CN12
T/C (endpoint: median tumor weight (est.), dose: 1.56 mg/kg/injection, schedule: Q07DX002 (ip), vehicle: saline, higher = larger tumour): 73 % of control | T/C (endpoint: median tumor weight (est.), dose: 3.12 mg/kg/injection, schedule: Q07DX002 (ip), vehicle: saline, higher = larger tumour): 79 % of control | T/C (endpoint: median tumor weight (est.), dose: 6.25 mg/kg/injection, schedule: Q07DX002 (ip), vehicle: saline, higher = larger tumour): 71 % of control | T/C [1]: 88 % of control

CC(=O)C1(O)Cc2c(O)c3c(c(O)c2C(OC2CC(N)C(O)C(C)O2)C1)C(=O)c1ccccc1C3=O (stereo unspecified)
T/C (endpoint: median survival time, dose: 1.4 mg/kg/injection, schedule: Q07DX002 (iv), vehicle: saline, higher = longer survival): 118 % of control | T/C (endpoint: median tumor weight (est.), dose: 0.37 mg/kg/injection, schedule: Q07DX002 (ip), vehicle: saline, higher = larger tumour): 66 % of control | T/C (endpoint: median tumor weight (est.), dose: 0.75 mg/kg/injection, schedule: Q07DX002 (ip), vehicle: saline, higher = larger tumour): 67 % of control

O=S(CCCl)CCCl
T/C (endpoint: median tumor weight (est.), dose: 0.78 mg/kg/injection, schedule: Q07DX003 (ip), vehicle: Klucel (hydroxypropylcellulose) (HPC), higher = larger tumour): 57 % of control | T/C (endpoint: median tumor weight (est.), dose: 1.56 mg/kg/injection, schedule: Q07DX003 (ip), vehicle: Klucel (hydroxypropylcellulose) (HPC), higher = larger tumour): 84 % of control | T/C (endpoint: median tumor weight (est.), dose: 3.12 mg/kg/injection, schedule: Q07DX003 (ip), vehicle: Klucel (hydroxypropylcellulose) (HPC), higher = larger tumour): 83 % of control | T/C (endpoint: median tumor weight (est.), dose: 6.25 mg/kg/injection, schedule: Q07DX003 (ip), vehicle: Klucel (hydroxypropylcellulose) (HPC), higher = larger tumour): 87 % of control | T/C (endpoint: median tumor weight (est.), dose: 12.5 mg/kg/injection, schedule: Q07DX002 (ip), vehicle: Klucel (hydroxypropylcellulose) (HPC), higher = larger tumour): 150 % of control | T/C (endpoint: median tumor weight (est.), dose: 12.5 mg/kg/injection, schedule: Q07DX003 (ip), vehicle: Klucel (hydroxypropylcellulose) (HPC), higher = larger tumour): 84 % of control | T/C (endpoint: median tumor weight (est.), dose: 25.0 mg/kg/injection, schedule: Q07DX002 (ip), vehicle: Klucel (hydroxypropylcellulose) (HPC), higher = larger tumour): 96 % of control | T/C (endpoint: median tumor weight (est.), dose: 25.0 mg/kg/injection, schedule: Q07DX003 (ip), vehicle: Klucel (hydroxypropylcellulose) (HPC), higher = larger tumour): 95 % of control | T/C (endpoint: median tumor weight (est.), dose: 50.0 mg/kg/injection, schedule: Q07DX002 (ip), vehicle: Klucel (hydroxypropylcellulose) (HPC), higher = larger tumour): 153 % of control | T/C (endpoint: median tumor weight (est.), dose: 100.0 mg/kg/injection, schedule: Q07DX002 (ip), vehicle: Klucel (hydroxypropylcellulose) (HPC), higher = larger tumour): 110 % of control

— PubChem BioAssay AID212 (DTP/NCI, 2004)
